The source of these data is US20030082525A1, “Five-Helix protein” (priority 1999, published 2003).

Experiment [1] deals with HIV-1 envelope-mediated membrane fusion (CHO cells expressing gp160 and Tat with HELA cells expressing CD4 and coreceptors). In words: Cell-cell fusion assay (syncytia formation). Conditions: 200 nM 5-Helix or 6-Helix mixed with C34 at 100, 166, 190 and 210 nM. Format: cell-based. On the procedure:
Assays were carried out to assess the ability of 5-Helix to interact with the C-region of gp41 and inhibit function of the fusion protein. This inhibition of membrane fusion by 5-Helix and 6-Helix was assessed using a cell-based assay. Proteins 5-Helix and 6-Helix are serially diluted in modified DMEM media with 5% FCS and aliquoted into slide chambers. HELA cells (4×10^4) expressing CD4 and coreceptors and containing a β-galactosidase gene under the control of the Tat promoter are added. CHO cells (2×10^4) expressing gp160 (precursor protein to gp120/gp41) and Tat are also added. The 400 μl miniculture is incubated at 37° C. for 8 to 24 hours; fused cells (syncytia) will transcribe and translate β-galactosidase. The cells are fixed in gluteraldehyde and exposed to X-gal/Fe solution for one hour. Syncytia that contain β-galactosidase turn blue-green. […]
All data in FIGS. 3A-3C were generated using His-tagged 5-Helix (see Example 1). […] Following two days of incubation at 37° C., the cells were harvested in […] lysis buffer (Luciferase Assay System, Promega), of which […] was analyzed per manufacturer's protocol. The IC50 values were calculated by fitting the 5-Helix titration data to a Langmuir function [normalized luciferase activity=1/(1+[5−Helix]/IC50)].

Experiment [2] has the same test system. The settings on record: number of syncytia; Chan et al. 1998; read-out: IC50 of C34 in cell-cell fusion assay; cited from earlier work.
Experiment [3] has as its target His-tagged C-peptide C37-H6 (C-peptide region of gp41) (Human immunodeficiency virus type 1 group M subtype B, UniProt P04578). Conditions: 150 μM C34 added to 16 μM 5-Helix and 30 μM C37-H6.
Procedure: The solution was added to 10 ml of Ni-NTA agarose and incubated at room temperature for 10 minutes. After the unbound supernatant was removed, the beads were washed twice with 1 ml TBS and then eluted with 500 mM imidazole. The Ni-bound and unbound samples were run on a 16.5% Tris-Tricine polyacrylamide gel (Biorad) and stained with Gel-code Blue (Pierce).
For experiment [4], the target named is HIV gp41 (from gp160, strain not stated in the assay text) (HIV-1). The experiment is described as follows: cell-based or functional assay.

Consider “C34: Peptide corresponding to the C-peptide region of HIV gp41 (W628 to L661); chemically synthesized, no His-tag”, for which the “Syncytia formation in mixing (competition) experiments (in words)” value in experiment [1] is “blocks all syncytia formation”. In addition, the IC50 in experiment [2] is 0.55 ± 0.03 nM. Also, in experiment [3], the “Competition of untagged C-peptide for 5-Helix/C37-H6 precipitation (in words)” value was “substantially reduces the amount of precipitated 5-Helix”.
In turn, GGHTTWMEWDREINNYTSLIHSLIEESQNQQEKNEQELLGGHHHHHH (modifications not checked) [His-tagged C-peptide C37-H6] returned an IC50, cell-cell fusion assay in experiment [4] of 1 nM.
